Assay results from the Kinase Knowledgebase extract (Sharma et al. 2016).

Target: CDK2 (human) (UniProt P24941)
Test: Enzyme Assay

Cc1cnc(NC2COCC(C(C)(C)c3ccc4c(=O)[nH][nH]c4c3)C2)s1 (configuration not stated)
Ki: < 1000 nM

O=c1[nH][nH]c2cc(Nc3nc(Nc4ccc5c(=O)[nH][nH]c5c4)c4ccccc4n3)ccc12
Ki: < 1000 nM

O=C(CCNc1cc(C2CC2)[nH]n1)Oc1ccc2c(=O)[nH][nH]c2c1
Ki: < 1000 nM

Cc1cc(Nc2cc(C)[nH]n2)nc(C2(c3ccc4c(=O)[nH][nH]c4c3)CC2)n1
Ki: < 1000 nM

Cc1nc(-c2ccc3[nH][nH]c(=O)c3c2Cl)nc(Nc2n[nH]c(C3CCCC3)n2)c1C
Ki: < 1000 nM

CCc1cc(Nc2cc(C)[nH]n2)nc(Nc2ccc3c(=O)[nH][nH]c3c2)n1
Ki: < 1000 nM

Cc1cc(Nc2cccc(Sc3ccc4c(=O)[nH][nH]c4c3)n2)n[nH]1
Ki: < 1000 nM

O=c1[nH][nH]c2cc(Nc3ncc(N4CCOCC4)c(Nc4cc(C5CC5)[nH]n4)n3)ccc12
Ki: < 1000 nM

CCCCOC(=O)c1cc(Nc2cc(C)[nH]n2)nc(Sc2ccc3c(=O)[nH][nH]c3c2)n1
Ki: < 1000 nM

O=c1[nH][nH]c2cc(Nc3cccc(Nc4nccnn4)c3)ccc12
Ki: < 1000 nM

O=C(CCOc1ccc2c(=O)[nH][nH]c2c1)Nc1ccccn1
Ki: < 1000 nM

Cc1cc(Nc2cc(C)[nH]n2)nc(COc2ccc3[nH][nH]c(=O)c3c2)n1
Ki: < 1000 nM

Cc1cnc(NC(=O)CCNc2ccc3c(=O)[nH][nH]c3c2)s1
Ki: < 1000 nM

O=c1[nH][nH]c2cc(NC3COCC(Nc4nccnn4)C3)ccc12 (configuration not stated)
Ki: < 1000 nM

O=c1[nH][nH]c2cc(OC3COCC(Nc4nccnn4)C3)ccc12 (configuration not stated)
Ki: < 1000 nM

Cn1cnc(NC2CCCC(Oc3ccc4c(=O)[nH][nH]c4c3)C2)c1 (configuration not stated)
Ki: < 1000 nM

O=c1[nH][nH]c2cc(Cl)c(-c3cc(C4CCCCC4)nc(Nc4n[nH]c5ccccc45)n3)cc12
Ki: < 1000 nM

Cc1nc(Oc2ccc3c(=O)[nH][nH]c3c2)nc(Nc2cc(C3CC3)[nH]n2)c1C
Ki: < 1000 nM

Cc1cc(Nc2cc(C3CC3)[nH]n2)nc(Sc2ccc3c(=O)[nH][nH]c3c2)n1
Ki: < 1000 nM

COCCCc1cc(Nc2nc(-c3ccc4[nH][nH]c(=O)c4c3)nc3ccccc23)n[nH]1
Ki: < 1000 nM

Cc1cnc(NOCCSc2ccc3c(=O)[nH][nH]c3c2)s1
Ki: < 1000 nM

Cc1cc(Nc2nc(C(C)(C)c3ccc4c(=O)[nH][nH]c4c3)nc3c2CCCCC3)n[nH]1
Ki: < 1000 nM

Nc1ccc(Nc2ccc3c(=O)[nH][nH]c3c2)nc1Nc1cc(C2CC2)[nH]n1
Ki: < 1000 nM

O=c1[nH][nH]c2cc(NC3CCCC(Nc4nccnn4)C3)ccc12 (configuration not stated)
Ki: < 1000 nM

O=c1[nH][nH]c2ccc(-c3nc(Nc4n[nH]c(C5CC5)n4)c4ccncc4n3)c(Cl)c12
Ki: < 1000 nM

O=c1[nH][nH]c2cc(OC(CCNc3cc(C4CC4)[nH]n3)Cc3ccccc3)ccc12 (configuration not stated)
Ki: < 1000 nM

O=c1[nH][nH]c2cc(Nc3ncc(Nc4ccccc4)c(Nc4cc(C5CC5)[nH]n4)n3)ccc12
Ki: < 1000 nM

Cc1cnc(NC(=O)CCCc2ccc3c(=O)[nH][nH]c3c2)s1
Ki: < 1000 nM

Cc1cnc(NC(CCSc2ccc3c(=O)[nH][nH]c3c2)c2ccccc2)s1 (configuration not stated)
Ki: < 1000 nM

O=C(CCNc1ccccn1)Cc1ccc2c(=O)[nH][nH]c2c1
Ki: < 1000 nM

CN(C)CCNC(=O)c1cc(Nc2cc(C3CC3)[nH]n2)nc(Sc2ccc3c(=O)[nH][nH]c3c2)n1
Ki: < 1000 nM

Cc1cc(Nc2nc(Sc3ccc4c(=O)[nH][nH]c4c3)nc3cc(N)ccc23)n[nH]1
Ki: < 1000 nM

N#Cc1cc2[nH][nH]c(=O)c2cc1-c1nc(Nc2n[nH]c3ccccc23)nc(N2CCCCC2)n1
Ki: < 1000 nM

O=C(CC(=O)Nc1ccccn1)Nc1ccc2c(=O)[nH][nH]c2c1
Ki: < 1000 nM

CC(C)NC(=O)c1cc(Nc2nc(-c3ccc4[nH][nH]c(=O)c4c3)nc3ccccc23)n[nH]1
Ki: < 1000 nM

O=c1[nH][nH]c2cc(Nc3ncc(-c4cccs4)c(Nc4cc(C5CC5)[nH]n4)n3)ccc12
Ki: < 1000 nM

O=c1[nH][nH]c2ccc(-c3nc4c(c(Nc5n[nH]c6c(F)cccc56)n3)CCCCC4)c(Cl)c12
Ki: < 1000 nM

COC(=O)c1cc(Nc2cc(C)[nH]n2)nc(Sc2ccc3c(=O)[nH][nH]c3c2)n1
Ki: < 1000 nM

O=c1[nH][nH]c2cc(C(F)(F)F)c(-c3cc(Nc4n[nH]c5ccccc45)cc(-c4ccccc4)n3)cc12
Ki: < 1000 nM

O=c1[nH][nH]c2ccc(-c3nnc(C4CCNCC4)c(Nc4n[nH]c5ccccc45)n3)c(C(F)(F)F)c12
Ki: < 1000 nM

O=c1[nH][nH]c2cc(Oc3cc(Nc4cc(C5CC5)[nH]n4)ccn3)ccc12
Ki: < 1000 nM

CN(C)CCNc1nnc(Nc2n[nH]c3ccccc23)cc1-c1ccc2[nH][nH]c(=O)c2c1Cl
Ki: < 1000 nM

O=c1[nH][nH]c2ccc(-c3nc(Nc4cc(-c5cccs5)[nH]n4)c4ccccc4n3)c(C(F)(F)F)c12
Ki: < 1000 nM

O=C(CC(=O)Oc1ccc2c(=O)[nH][nH]c2c1)Nc1cc(C2CC2)[nH]n1
Ki: < 1000 nM

C#Cc1c(-c2nc(Nc3n[nH]c(C)n3)c3ccccc3n2)ccc2[nH][nH]c(=O)c12
Ki: < 1000 nM

O=c1[nH][nH]c2cc(CC(CCNc3ccccn3)Cc3ccccc3)ccc12 (configuration not stated)
Ki: < 1000 nM

O=c1[nH][nH]c2cc(Sc3cc4ccccc4c(Nc4n[nH]c5ccccc45)n3)ccc12
Ki: < 1000 nM

O=c1[nH][nH]c2cc(Nc3nc(Nc4cc(-c5ccco5)[nH]n4)c4ccccc4n3)ccc12
Ki: < 1000 nM

Cc1cc(Nc2nc(Sc3ccc4c(=O)[nH][nH]c4c3)nc3c(O)cccc23)n[nH]1
Ki: < 1000 nM

Cc1cnc(NC2CCCC(Sc3ccc4c(=O)[nH][nH]c4c3)C2)s1 (configuration not stated)
Ki: < 1000 nM

Cc1cc(Nc2cc(C(C)(C)C)nc(Sc3ccc4c(=O)[nH][nH]c4c3)n2)n[nH]1
Ki: < 1000 nM

O=c1[nH][nH]c2cc(Sc3cc4ccccc4c(Nc4cc(C5CC5)[nH]n4)n3)ccc12
Ki: < 1000 nM

O=c1[nH][nH]c2ccc(-c3nc(Nc4n[nH]c5cc(=O)n(-c6ccccc6)nc45)c4ccccc4n3)cc12
Ki: < 1000 nM

Cn1cnc(NC2COCC(Oc3ccc4c(=O)[nH][nH]c4c3)C2)c1 (configuration not stated)
Ki: < 1000 nM

Cc1cc(Nc2nc([C@@H]3C[C@H]3c3ccc4c(=O)[nH][nH]c4c3)nc3ccccc23)n[nH]1
Ki: < 1000 nM

O=c1[nH][nH]c2cc(CC(CCNc3nccnn3)Cc3ccccc3)ccc12 (configuration not stated)
Ki: < 1000 nM

O=c1[nH][nH]c2ccc(-c3nc(Nc4n[nH]c5c(F)cc(F)cc45)c4cc(N5CCOCC5)ccc4n3)c(C(F)(F)F)c12
Ki: < 1000 nM

O=C(CCNc1nccnn1)Nc1ccc2c(=O)[nH][nH]c2c1
Ki: < 1000 nM

O=c1[nH][nH]c2ccc(-c3nc4c(c(Nc5n[nH]c6c(F)cc(F)cc56)n3)CCCC4)c(C(F)(F)F)c12
Ki: < 1000 nM

Cc1ccc2nc(Nc3ccc4c(=O)[nH][nH]c4c3)nc(Nc3cc(C4CC4)[nH]n3)c2n1
Ki: < 1000 nM

O=c1[nH][nH]c2cc(OCCCNc3cc(C4CC4)[nH]n3)ccc12
Ki: < 1000 nM

Cc1cc(Nc2nc(-c3ccc4[nH][nH]c(=O)c4c3)nc3cnccc23)n[nH]1
Ki: < 1000 nM

Cn1cnc(NCCC(Cc2ccccc2)Cc2ccc3c(=O)[nH][nH]c3c2)c1 (configuration not stated)
Ki: < 1000 nM

O=C(NC1CC1)c1cc(Nc2nc(-c3ccc4[nH][nH]c(=O)c4c3)nc3ccccc23)n[nH]1
Ki: < 1000 nM

O=c1[nH][nH]c2ccc(-c3nc(Nc4cc(C5CCCC5)[nH]n4)c4ccccc4n3)cc12
Ki: < 1000 nM

O=c1[nH][nH]c2cc(NC3COCC(Nc4ccccn4)C3)ccc12 (configuration not stated)
Ki: < 1000 nM

Cc1cccc(-c2cc(Nc3cc(C)[nH]n3)nc(Oc3ccc4c(=O)[nH][nH]c4c3)n2)c1
Ki: < 1000 nM

Cn1cnc(NC2CCCC2CNc2ccc3c(=O)[nH][nH]c3c2)c1 (configuration not stated)
Ki: < 1000 nM

O=c1[nH][nH]c2cc(Sc3nc(Nc4cc(C5CC5)[nH]n4)c4cccc(F)c4n3)ccc12
Ki: < 1000 nM

Cc1cnc(NC2CCCC2COc2ccc3c(=O)[nH][nH]c3c2)s1 (configuration not stated)
Ki: < 1000 nM

O=c1[nH][nH]c2cc(Nc3nc(Nc4cc(C5CC5)[nH]n4)cc(Oc4ccccc4)n3)ccc12
Ki: < 1000 nM

CN1CCN(c2cc(Nc3cc(C4CC4)[nH]n3)nc(Sc3ccc4c(=O)[nH][nH]c4c3)n2)CC1
Ki: < 1000 nM

O=c1[nH][nH]c2cc(Cc3nc(Nc4cc(C5CC5)[nH]n4)c4ccccc4n3)ccc12
Ki: < 1000 nM

Cc1cccc2c(Nc3cc(-c4ccccc4)[nH]n3)nc(-c3ccc4[nH][nH]c(=O)c4c3OC(F)(F)F)nc12
Ki: < 1000 nM

O=c1[nH][nH]c2cc(NCCCNc3ccccn3)ccc12
Ki: < 1000 nM

Cc1cc(Nc2cc(CN(C)C)nc(Sc3ccc4c(=O)[nH][nH]c4c3)n2)n[nH]1
Ki: < 1000 nM

O=c1[nH][nH]c2ccc(-c3nc(Nc4n[nH]c5c(F)cc(F)cc45)c4ccncc4n3)c(Cl)c12
Ki: < 1000 nM

O=c1[nH][nH]c2cc(Cc3cc4ccccc4c(Nc4cc(C5CC5)[nH]n4)n3)ccc12
Ki: < 1000 nM

Cc1cc(Nc2cc(-c3ccco3)[nH]n2)nc(COc2ccc3[nH][nH]c(=O)c3c2)n1
Ki: < 1000 nM

O=c1[nH][nH]c2cc(SCCCNc3ccccn3)ccc12
Ki: < 1000 nM

Cn1cnc(NC2CCCC2CSc2ccc3c(=O)[nH][nH]c3c2)c1 (configuration not stated)
Ki: < 1000 nM

Cc1cnc(CC2CCCC2CCc2ccc3c(=O)[nH][nH]c3c2)s1 (configuration not stated)
Ki: < 1000 nM

O=c1[nH][nH]c2cc(SC3COCC(Nc4ccccn4)C3)ccc12 (configuration not stated)
Ki: < 1000 nM

Cn1cnc(NC(CCCc2ccc3c(=O)[nH][nH]c3c2)c2ccccc2)c1 (configuration not stated)
Ki: < 1000 nM

CC(C)(C)c1cc(Nc2nc(-c3ccc4[nH][nH]c(=O)c4c3C(F)(F)F)nc3ccccc23)n[nH]1
Ki: < 1000 nM

O=c1[nH][nH]c2cc(SCCONc3nccnn3)ccc12
Ki: < 1000 nM

O=c1[nH][nH]c2cc(CCCONc3ccccn3)ccc12
Ki: < 1000 nM

Cc1cc(Nc2nc(Cc3ccc4c(=O)[nH][nH]c4c3)nc3c2CCCC3)n[nH]1
Ki: < 1000 nM

Cc1cnc(Sc2ccc3c(=O)[nH][nH]c3c2)nc1Nc1cc(C2CC2)[nH]n1
Ki: < 1000 nM

O=c1[nH][nH]c2cc(OC3CCCC(Nc4cc(C5CC5)[nH]n4)C3)ccc12 (configuration not stated)
Ki: < 1000 nM

Cn1cnc(NC(=O)CCNc2ccc3c(=O)[nH][nH]c3c2)c1
Ki: < 1000 nM

O=c1[nH][nH]c2cc(Nc3nc(Nc4cc(C5CCCC5)[nH]n4)c4ccccc4n3)ccc12
Ki: < 1000 nM

O=c1[nH][nH]c2cc(Nc3ccc([N+](=O)[O-])c(Nc4cc(C5CC5)[nH]n4)n3)ccc12
Ki: < 1000 nM

Cc1cnc(NC(=O)CCSc2ccc3c(=O)[nH][nH]c3c2)s1
Ki: < 1000 nM

Cc1cnc(NCCC(Cc2ccccc2)Nc2ccc3c(=O)[nH][nH]c3c2)s1 (configuration not stated)
Ki: < 1000 nM

O=C(CCCc1ccc2c(=O)[nH][nH]c2c1)Nc1nccnn1
Ki: < 1000 nM

O=c1[nH][nH]c2cc(Nc3nc(Nc4cc(C5CC5)[nH]n4)c4cc(-c5ccccc5Cl)ccc4n3)ccc12
Ki: < 1000 nM
